# Data as given in patent publication US9221783B2, “Phenylalkyl sulfamate compound and muscle relaxant composition comprising the same” (BIO-PHARM SOLUTIONS CO., LTD., priority 2012, dated 2015).
# Key:
# Format in all cases: in vivo
# [1] = test system: male mice (ICR); assay: Muscle relaxation activity by grip strength test (forelimbs); details: intraperitoneal; for ED50: Mus musculus, ip; for Grip strength, percentage compared to the vehicle only (100%): dose 200 (unit not given)
# Protocol: (§1) For testing, male mice (ICR) were purchased from ORIENT BIO INC. (Korea), divided into several groups with 6 mice in each group, and were adapted for 4-5 days. The mice having the weight ranging from 19 g to 26 g were employed for the test. The pharmacological effect of the test compounds on muscle relaxation was evaluated by Rotarod test, grip strength test, and muscular force (wire hang) test. All mice were adapted to the test environment at one hour before starting the tests. The pharmacological effects of all the test compounds were evaluated by administration through peritoneal cavity of the mice (10 ul/g, bw).
# The test was conducted before and after administration of the compounds to evaluate the effects thereof. […] The mouse was made to grip the rod with its forelimbs, and its tail was pulled, where the force at which the mouse detached from the rod was recorded. The instrument indicated the force in grams. All of the mice were given 3 opportunities for test, and the 3 highest values among the test opportunities were selected and the mean value was used as the test result. […] Psychopharmacol. 110: 92-96’.
# (§2) The obtained results are shown as mean±sem. The difference between the groups was statistically analyzed by ANOVA, and then, further examined by Dunnett's test or Bonferroni test. If p is less than 0.05, it was determined that the difference between the groups had statistical significance.
# [2] = test system: male mice (ICR); assay: Muscle relaxation activity by wire hang (wire suspension) test; details: intraperitoneal; for ED50: Mus musculus, ip, ED50 vs vehicle only (100%); for Wire suspension, percentage compared to the vehicle only (100%): dose 100 (unit not given)
# Protocol: as §1
# This experimentation was conducted using a metal wire of 30 cm in length, which was suspended between two pillars at a height of about 40 cm from the bottom covered with a soft pad. […] Each mouse was made to grip the wire using two forelimbs, and the elapse time before the mouse fell off from the wire to the pad on the bottom was recorded in seconds. Each mouse was given 5 opportunities for this test at an interval of 2 minutes period. The highest 3 records among the test opportunities were selected and the mean value was used as the test result. This experimentation was conducted according to the method described in the reference, ‘Jacqueline N. Crawley (1999) Behavioral phenotyping of transgenic and knockout mice: experimental design and evaluation of general health, sensory functions, motor abilities, and specific behavioral tests. Brain Res. 835: 18-26’.
# as §2
# (§3) The results of muscle relaxation activity of the phenylalkyl sulfamate compounds measured in above Experimental Examples 1 to 43 are shown in following Table 2.
# [3] = test system: male mice (ICR); assay: Muscle relaxation activity by residence time on a rotarod rotating at a fixed speed; details: intraperitoneal; for ED50: Mus musculus, ip, 15 rpm, max 10 min, ED50 vs vehicle only (100%), determined at 0.5 h (time of maximum effect)
# Protocol: as §1
# All the mice to be tested were preliminarily trained for 5 minutes on a rod rotating at the rate of 15 revolutions per a minute. The mice that could not remain on the rod without falling off therefrom for a minimum of 2 minutes were excluded from this testing. After the training, all the mice were allowed to rest for 45-60 minutes. Before the administration of the test compounds, the mice were subjected to a further training for one minute on the rod rotating under the same condition, where the mice falling off from the rod were excluded from this experimentation. […] In case a mouse stays on the rod until the test is finished, the time was recorded as 10 minutes. As test time for evaluation, a maximum of 10 minutes was applied. This experimentation was conducted according to the method described in the reference, ‘Yasuda et al. (2005) Antipyretic, analgesic and muscle relaxant activities of Pueraria isoflavonoids and their metabolites from Pueraria lobata Ohwi—a traditional Chinese drug. Biol. Pharm. Bull. 28: 1224-1228.
# as §2, §3
# [4] = ED50 = 50% of muscle relaxation activity compared to vehicle only (100%), determined at 0.5 h (time of maximum effect)
# [5] = determined at 0.5 h (time of maximum effect)
SMILES,"ED50 [1, 4] [mg/kg]",ED50 [3] [mg/kg],"Grip strength, percentage compared to the vehicle only (100%) [1]",further results
"CC1(C)O[C@H](c2ccccc2Cl)[C@@H](COS(N)(=O)=O)O1 [Example 1, ((4R,5R)-5-(2-chlorophenyl)-2,2-dimethyl-1,3-dioxolan-4-yl)methyl sulfamate]",212,108,,"ED50 [2, 5]: 96.7 mg/kg"
"CC1(C)O[C@@H](COS(N)(=O)=O)[C@H](c2ccccc2Cl)O1 [Example 2, ((4S,5S)-5-(2-chlorophenyl)-2,2-dimethyl-1,3-dioxolan-4-yl)methyl sulfamate]",211,73.6,,"ED50 [2, 5]: 81.4 mg/kg"
"CC1(C)OC(COS(N)(=O)=O)C(c2ccccc2Cl)O1 (centres unmarked) [Example 3, (5-(2-chlorophenyl)-2,2-dimethyl-1,3-dioxolan-4-yl)methyl sulfamate]",,99.2,,"ED50 ([1]; ED50 vs vehicle only (100%), determined at 0.25 h (time of maximum effect)): 205 mg/kg; ED50 ([2]; determined at 1 h (time of maximum effect)): 116 mg/kg"
"CC1(C)OC(COS(N)(=O)=O)C(c2ccccc2Cl)O1 (centres unmarked) [Example 4, (5-(2-chlorophenyl)-2,2-dimethyl-1,3-dioxolan-4-yl)methyl sulfamate]",,,200 (56.5%),"Wire suspension, percentage compared to the vehicle only (100%) [2]: 100 (41.3%); Fixed rotarod, percentage of residence time compared to the vehicle only (100%) ([3]; dose 100 (unit not given)): 100 (76.6%)"
"CC1O[C@@H](COS(N)(=O)=O)[C@H](c2ccccc2Cl)O1 (stereo partly drawn) [Example 6, ((4S,5S)-5-(2-chlorophenyl)-2-methyl-1,3-dioxolan-4-yl)methyl sulfamate]",,,200 (44.8%),"Wire suspension, percentage compared to the vehicle only (100%) [2]: 100 (70.0%); Fixed rotarod, percentage of residence time compared to the vehicle only (100%) ([3]; dose 100 (unit not given)): 100 (50.4%)"
"CC1(C)O[C@H](c2ccccc2F)[C@@H](COS(N)(=O)=O)O1 [Example 15, ((4R,5R)-5-(2-fluorophenyl)-2,2-dimethyl-1,3-dioxolan-4-yl)methyl sulfamate]",,,,"Fixed rotarod, percentage of residence time compared to the vehicle only (100%) ([3]; dose 140 (unit not given)): 140(22.7%)"
"CC1(C)O[C@@H](COS(N)(=O)=O)[C@H](c2ccccc2F)O1 [Example 16, ((4S,5S)-5-(2-fluorophenyl)-2,2-dimethyl-1,3-dioxolan-4-yl)methyl sulfamate]",161,,,"ED50 [2, 5]: 99.1 mg/kg"
"CC1(C)O[C@@H](COS(N)(=O)=O)[C@H](c2ccccc2I)O1 [Example 28, ((4S,5S)-5-(2-iodophenyl)-2,2-dimethyl-1,3-dioxolan-4-yl)methyl sulfamate]",261,102,,"Wire suspension, percentage compared to the vehicle only (100%) [2]: 100(66.8%)"
"NS(=O)(=O)OC[C@H]1OC2(CCCCC2)O[C@@H]1Cc1ccccc1Cl [Example 152, ((2R,3R)-3-(2-chlorobenzyl)-1,4-dioxaspiro[4,5]decan-2-yl)methyl sulfamate]",,,200 (77.2%),
"CC1(C)O[C@@H](CCOS(N)(=O)=O)[C@H](c2ccccc2Cl)O1 [Example 154, ((4S,5S)-5-(2-chlorophenyl)-2,2-dimethyl-1,3-dioxolan-4-yl)ethyl sulfamate]",,,200 (70.4%),
"CCC1(CC)O[C@@H](CCOS(N)(=O)=O)[C@H](c2ccccc2Cl)O1 [Example 156, 2-((4S,5S)-5-(2-chlorophenyl)-2,2-diethyl-1,3-dioxolan-4-yl)ethyl sulfamate]",,,200 (73.2%),
"NS(=O)(=O)OCC[C@@H]1OC2(CCCC2)O[C@H]1c1ccccc1Cl [Example 158, 2-((2S,3S)-3-(2-chlorophenyl)-1,4-dioxaspiro[4,4]nonan-2-yl)ethyl sulfamate]",,,200 (74.2%),
"NS(=O)(=O)OCC[C@@H]1OC2(CCCCC2)O[C@H]1c1ccccc1Cl [Example 160, 2-((2S,3S)-3-(2-chlorophenyl)-1,4-dioxaspiro[4,5]decan-2-yl)ethyl sulfamate]",,,200 (86.8%),
